According to patent US20040171824A1, “A Lac operator-repressor system” (priority 2001, published 2004):

Tests used:
[1] = tested on: tyrosinase expression in Tyr^lacO, LacI double transgenic mice; assay: IPTG derepression of tyrosinase expression (pigmentation) in Tyr^lacO, LacI double transgenic mice; type: in vivo, mouse
Method: The lac operator-repressor system of the present invention was tested in mice using a regulatable version of a well-characterized visible marker gene, tyrosinase. Tyrosinase is the protein product of the albino (c) locus (Kwon et al., PNAS 84, 7473-7477 (1987)), and is the enzyme that catalyzes the first step in melanin biosynthesis. The target transgene consists of the wildtype murine tyrosinase cDNA under the control of the murine tyrosinase promoter modified to contain lac operator sequences (See FIG. 2). The major transcription start site in the tyrosinase promoter is 83 bp upstream of the start codon. To maintain the endogenous spacing of promoter elements in the critical region between the start of transcription and the start of translation, a PCR-based, site-directed mutagenesis was used to change 25 bp of the endogenous sequence to create a primary lac operator centered at 59 bp upstream of the start of translation. Additional operators were inserted 176 bp and 526 bp upstream of the primary operator (FIG. 2). Mice containing this modified Tyrosinase transgene resemble pigmented animals previously described (Methot et al., nucleic Acids Research, 23, 4551-4556 (1995)) that had been microinjected with an unregulatable version of the same transgene. Two lines of pigmented Tyrosinase transgenic mice were established containing the regulatable transgene. […]

[2] = Tolerability of IPTG in the drinking water of Tyr^lacO, LacI double-transgenic mice; type: in vivo, mouse
Method: Tyrosinase activity was derepressed by replacing the drinking water with a 10 mM solution of IPTG (changed every four days). To allow for the normal pattern of tyrosinase expression during development, the female was started on 10 mM IPTG at day 7 of pregnancy.

[3] = tested on: tyrosinase expression in Tyr^lacO, LacI double transgenic embryos and pups; assay: Transplacental IPTG regulation and reversibility of pigmentation in embryonic and newborn double transgenic mice; type: in vivo, mouse
Text: To determine if lac elements could regulate pigmentation during embryogenesis and if IPTG could act transplacentally, the pigmentation in the developing retinal pigment epithelium of embryonic and newborn mice was investigated. At E9, tyrosinase activity in the embryonic eye of wild type mice begins to deposit pigment in the developing retinal pigment epithelium. At E12.5, the mouse RPE clearly is pigmented. Tyr^lacO (43) transgenic mice recapitulate this developmental event. A distinct band of pigmentation surrounding the central lens is seen in the Tyrosinase transgenic embryo that is not seen in the nontransgenic albino.
Finally, the reversibility of the system was tested by switching the Tyrosinase transgene on after it had been off, or off after it had been on, in the same animal. The phenotypes of eyes of newborn mice were compared to the phenotypes of embryonic eyes of mice of the same genotype. […] However, at E12.5, this double transgenic pup has the albino phenotype. […] Reversibility was also observed with regards to switching off the tyrosinase gene after it had intially been on. […] As expected, the eyes remain pigmented due to the low turnover of cells and melanosomes in the RPE.
For embryonic eyes, pregnant females were euthanized at E12.5, and the embryos removed. The head of each embryo was fixed in 2% paraformaldehyde in 0.1 M phosphate (pH 7.4), and the lower half was taken for genotyping. Tyrosinase activity was derepressed by replacing the drinking water with a 10 mM solution of IPTG (changed every four days). To allow for the normal pattern of tyrosinase expression during development, the female was started on 10 mM IPTG at day 7 of pregnancy.

[4] = tested on: mouse L-cells stably transfected with lacI expression vector; details: MSV-CAT reporter with lac operators; cited from earlier work
[5] = cited from earlier work

In the case of `CC(C)S[C@@H]1O[C@H](CO)[C@H](O)[C@H](O)[C@H]1O` [IPTG, isopropyl-β-D-thiogalactoside], the “tyrosinase expression / coat phenotype” value ([1]; double transgenic animal, 10 mM IPTG in the drinking water) is reported as “derepressed tyrosinase expression”, the “pigmentation in the retinal pigment epithelium (RPE)” value ([1]; double transgenic mouse treated with IPTG, eye sections) is reported as “restoration of pigmentation in the RPE to levels indistinguishable from the nonrepressed state” and the “deleterious effects on long-term administration” value ([2]; 10 mM IPTG in drinking water for up to 8 months) is reported as “no deleterious effects”. For the same compound, the “toxicity of the circulating level that derepresses target gene expression” value ([2]; IPTG in the drinking water) was “completely nontoxic”, the “pigmentation of the embryonic RPE” value ([3]; double-transgenic embryo at E12.5, mother on 10 mM IPTG in drinking water during pregnancy) was “not when the mother was treated with IPTG during pregnancy” and the placental transfer ([3]; mother given IPTG in drinking water) was “can cross the placenta”. For the same compound, the “switching tyrosinase expression on after a period of silencing (eye pigmentation at birth)” value ([3]; mother started on IPTG at E12.5 of pregnancy) was “able to switch tyrosinase expression on”, the “coat phenotype after removal of IPTG” value ([3]; pup's mother taken off IPTG at P9) was “reversion of the coat phenotype to albino” and the CAT activity [4] was “marked de-repression of CAT activity”. For the same compound, the tissue distribution ([5]; adult animal, spleen, liver, lung, kidney, brain, adipose tissue) was “widespread”, the “nuclear uptake of inducer, of the total cell uptake” value ([5]; average) was 18% and the “clearance from the blood” value ([5]; in vivo) was “rapidly cleared from the blood”. For the same compound, the “metabolism in the animal” value ([5]; in vivo) was “not metabolized”, the “relative concentration of inducer to repressor molecules versus that required for maximal induction in E. coli” value ([5]; in vivo) was about 1000 fold and the “time functionally active after introduction into the bloodstream” value ([5]; in vivo) was “at least 4 hours”. The “time to reach high levels in cells of tissues” value ([5]; uptake by facilitated transport into tissues of the animal) was 2 to 4 h.
